Measured values: patent publication US20250368651A1 (priority 2022, published 2025)
Like-named read-outs stand apart in the source and are kept apart here.

Legend:
SMN2 exon 7 splicing = experiment: Cell-based SMN2 splicing assay in 293T cells (minigene); parameters: species or system human; conditions: for EC50: Homo sapiens, HEK-293T; for splicing modulation in cells: cellular SMN2 splicing assays
RNA Seq4 […] = experiment: FP binding assay, RNA Seq4
Procedure: (§1) All synthetic DNA and RNA oligomers were purchased from Integrated DNA Technologies and reconstituted in nuclease-free water (Invitrogen #AM9932) at 1 mM. The concentration of the oligonucleotides at ˜0.1 mM was calibrated with the A260 value measured by a NanoDrop ND-1000 (Thermo, Waltham, MA, USA) and the predicted extinction coefficient (http://www.oligoevaluator.com) using Lamber-Beer's Law. The risdiplam analogues (1 mM in DMSO) were diluted in 2× assay buffer (40 mM HEPES, 200 mM NaCl for RNA; 40 mM HEPES, 200 mM NaCl, 1 mM MgCl2 for DNA) to make a 1 μM 2× working solution.
(§2) A 1:2 dilution series (8 points) of each oligonucleotide was prepared in 20-30 μL water to desired concentrations (i.e., 1-128 μM). 20-30 μL 2× working solution containing the 2× assay buffer and the small-molecule ligand was added to each oligonucleotide sample in 1:1 (v/v) and mixed by pipetting for 4 times. For fluorescence polarization measurement, 20 μL of the above 1× working solution was transferred into a 384-well, black, F-bottom microplates (Greiner Bio-One) in duplicates or triplicates. The plate was equilibrated at room temperature for 5 min before being read using a microplate reader (SYNERGY H1, BioTek; Excitation/Emission=360/460 nm) at 25° C. For compound SMN-C5, a competitive binding assay was employed to measure an apparent Kd. SMN-C5 was 1:2 serial diluted for 10 concentration points starting at 750 μM in DMSO. A mixture of SMN-C2 (0.5 μM) and DNA Seq6 (25 μM) in 1× assay buffer was prepared and incubated at room temperature for 10 minutes. 3 μL of SMN-C5 solution at each concentration was added to a 42 μL SMN-C2/DNA Seq6 mixture and incubated at room temperature for 10 minutes. The mixture was then transferred into a microplate (20 μL each well) in duplicates for fluorescence polarization readout. The experimental data were analyzed using Prism 8 software (Graphpad Software, San Diego, CA, USA).

[1] = target: DNA Seq6 (UGAAGGAAGGU as deoxyribonucleotides); experiment: FP binding assay, DNA Seq6; conditions: footnote c: FP assay for DNA Seq6; range = 95% CI; read-out: Kd
Procedure: as §1, §2

[2] = target: COVID RNA (SARS-CoV-2 RNA SL5 per FIG. 8); experiment: FP binding, Kd for COVID RNA
RNA Seq6 UGAAGGAAGGU = experiment: Fluorescence polarization (FP) binding assay, RNA Seq6
Procedure: as §1, §2

in vitro [3] = conditions: human
in vitro [4] = conditions: human; remark: listed apart in the source
in vitro [5] = conditions: human; remark: listed apart in the source
gene splicing = conditions: cited from earlier work
[6] = Table 3, read-out: SMN2 Splicing EC50
[7] = cell-based SMN2 splicing assay in 293T cells, read-out: SMN2 EC50

CCOC(=O)C1=C(Nc2ccccc2)S/C(=C\c2ccc(OCCOCCn3cc(COCCOCCOCCOCCN4CCN(c5ccc6cc(-c7cn8cc(C)nc(C)c8n7)c(=O)oc6c5)CC4C)nn3)c(O)c2)C1=O (stereo in doubt) [Compound C9, (S,Z)-ethyl 5-(4-(2-(2-(4-(13-(4-(3-(6,8-dimethylimidazo[1,2-a]pyrazin-2-yl)-2-oxo-2H-chromen-7-yl)-2-methylpiperazin-1-yl)-2,5,8,11-tetraoxatridecyl)-1H-1,2,3-triazol-1-yl)ethoxy)ethoxy)-3-hydroxybenzylidene)-4-oxo-2-(phenylamino)-4,5-dihydrothiophene-3-carboxylate]
EC50 (SMN2 exon 7 splicing; [6]): > 8 µM

Cc1cn2cc(-c3cc4ccc(N5CCN(CCNC(=O)OC(C)(C)C)[C@@H](C)C5)cc4oc3=O)nc2c(C)n1 [Compound C6, (S)-tert-butyl(2-(4-(3-(6,8-dimethylimidazo[1,2-a]pyrazin-2-yl)-2-oxo-2H-chromen-7-yl)-2-methylpiperazin-1-yl)ethyl)carbamate]
Kd (RNA Seq4 […]): 37.5 ± 14 µM | Kd [1]: 4 ± 0.3 µM | EC50 (SMN2 exon 7 splicing; [7]): > 8 µM | splicing modulation in cells (SMN2 exon 7 splicing): without showing any observable splicing modulation | Kd ([2]; Table 3): 3 ± 0.4 µM | Kd ([2]; Table 4): 3.03 ± 0.4 µM | reduction of binding to RNA Seq6 by the Boc group (RNA Seq6 UGAAGGAAGGU; Table 1 RNA Seq6 (SMN-C2) vs Table 2 entry 6): ~3 fold | Kd (RNA Seq6 UGAAGGAAGGU; footnote d: FP assay for RNA Seq6, read-out: Kd): 51.2 ± 4.9 µM

Cc1cn2cc(-c3c(OCCNC(=O)OC(C)(C)C)c4ccc(N5CCN[C@@H](C)C5)cc4oc3=O)nc2c(C)n1 [Compound C7]
EC50 (SMN2 exon 7 splicing; [6]): > 8 µM

CC(=O)N1CCN(c2ccc3cc(-c4cn5cc(C)nc(C)c5n4)c(=O)oc3c2)C[C@@H]1C [Compound C8, (S)-7-(4-acetyl-3-methylpiperazin-1-yl)-3-(6,8-dimethylimidazo[1,2-a]pyrazin-2-yl)-2H-chromen-2-one]
EC50 (SMN2 exon 7 splicing; [6]): > 8 µM

Cc1cn2cc(-c3cc4ccc(N5CCN(CCOCCN=[N+]=[N-])[C@@H](C)C5)cc4oc3=O)nc2c(C)n1 [Compound C12, (S)-7-(4-(2-(2-azidoethoxy)ethyl)-3-methylpiperazin-1-yl)-3-(6,8-dimethylimidazo[1,2-a]pyrazin-2-yl)-2H-chromen-2-one]
EC50 (SMN2 exon 7 splicing; [6]): 0.18 ± 0.04 µM | Kd ([2]; Table 3): 2.6 ± 0.8 µM | Kd ([2]; Table 4): 2.6 ± 0.8 µM

Cc1cn2cc(-c3c(Br)c4ccc(N5CCN[C@@H](C)C5)cc4oc3=O)nc2c(C)n1 [Compound C13, (S)-4-bromo-3-(6,8-dimethylimidazo[1,2-a]pyrazin-2-yl)-7-(3-methylpiperazin-1-yl)-2H-chromen-2-one]
EC50 (SMN2 exon 7 splicing; [6]): 0.45 ± 0.18 µM

CN1CCN(c2ccc3cc(-c4ccccc4Cl)c(=O)oc3c2)CC1 [Compound C18, 3-(2-chlorophenyl)-7-(4-methylpiperazin-1-yl)-2H-chromen-2-one]
Kd [1]: > 100 µM | EC50 (SMN2 exon 7 splicing; [6]): > 8 µM | EC50 (SMN2 exon 7 splicing; [7]): > 8 µM

CN1CCN(c2ccc3cc(-c4cccc(Cl)c4)c(=O)oc3c2)CC1 [Compound C19, 3-(3-chlorophenyl)-7-(4-methylpiperazin-1-yl)-2H-chromen-2-one]
CC50 (in vitro [3]): > 30 µM | Kd [1]: 13.9 ± 1.1 µM | EC50 (SMN2 exon 7 splicing; [6]): > 8 µM | EC50 (SMN2 exon 7 splicing; [7]): > 8 µM | CC50 (in vitro [4]): > 30 µM | CC50 (in vitro [5]): > 30 µM

CN1CCN(c2ccc3cc(-c4ccc(Cl)cc4)c(=O)oc3c2)CC1 [Compound C20, 3-(4-chlorophenyl)-7-(4-methylpiperazin-1-yl)-2H-chromen-2-one]
Kd [1]: 8.2 ± 0.7 µM | EC50 (SMN2 exon 7 splicing; [6]): > 8 µM | EC50 (SMN2 exon 7 splicing; [7]): > 8 µM | splicing modulation in cells (SMN2 exon 7 splicing): without showing any observable splicing modulation

Cc1c(-c2ccccc2Cl)c(=O)oc2cc(N3CCN(C)CC3)ccc12 [Compound C21, 3-(2-chlorophenyl)-4-methyl-7-(4-methylpiperazin-1-yl)-2H-chromen-2-one]
EC50 (SMN2 exon 7 splicing; [6]): > 8 µM

Cc1c(-c2cccc(Cl)c2)c(=O)oc2cc(N3CCN(C)CC3)ccc12 [Compound C22, 3-(3-chlorophenyl)-4-methyl-7-(4-methylpiperazin-1-yl)-2H-chromen-2-one]
CC50 (in vitro [3]): > 30 µM | Kd [1]: > 100 µM | EC50 (SMN2 exon 7 splicing; [6]): > 8 µM | EC50 (SMN2 exon 7 splicing; [7]): > 8 µM | CC50 (in vitro [4]): > 30 µM | CC50 (in vitro [5]): > 30 µM

Cc1c(-c2ccc(Cl)cc2)c(=O)oc2cc(N3CCN(C)CC3)ccc12 [Compound C23, 3-(4-chlorophenyl)-4-methyl-7-(4-methylpiperazin-1-yl)-2H-chromen-2-one]
Kd [1]: > 100 µM | EC50 (SMN2 exon 7 splicing; [6]): > 8 µM | EC50 (SMN2 exon 7 splicing; [7]): > 8 µM

CN1CCN(c2cc(F)c3cc(-c4ccccc4Cl)c(=O)oc3c2)CC1 [Compound C24, 3-(2-chlorophenyl)-5-fluoro-7-(4-methylpiperazin-1-yl)-2H-chromen-2-one]
EC50 (SMN2 exon 7 splicing; [6]): > 8 µM

CN1CCN(c2cc(F)c3cc(-c4cccc(Cl)c4)c(=O)oc3c2)CC1 [Compound C25, 3-(3-chlorophenyl)-5-fluoro-7-(4-methylpiperazin-1-yl)-2H-chromen-2-one]
Kd [1]: 18.7 ± 4 µM | EC50 (SMN2 exon 7 splicing; [6]): > 8 µM | EC50 (SMN2 exon 7 splicing; [7]): > 8 µM

CN1CCN(c2cc(F)c3cc(-c4ccc(Cl)cc4)c(=O)oc3c2)CC1 [Compound C26, 3-(4-chlorophenyl)-5-fluoro-7-(4-methylpiperazin-1-yl)-2H-chromen-2-one]
CC50 (in vitro [3]): > 30 µM | Kd [1]: 9.9 ± 0.9 µM | EC50 (SMN2 exon 7 splicing; [6]): > 8 µM | EC50 (SMN2 exon 7 splicing; [7]): > 8 µM | CC50 (in vitro [4]): > 30 µM | CC50 (in vitro [5]): > 30 µM

COc1cn2cc(-c3cc4ccc(N5CCNCC5)cc4oc3=O)nc2cn1 [Compound C28, 3-(6-methoxyimidazo[1,2-a]pyrazin-2-yl)-7-(piperazin-1-yl)-2H-chromen-2-one]
Kd [1]: 1.4 ± 0.2 µM | EC50 (SMN2 exon 7 splicing; [6]): > 8 µM | EC50 (SMN2 exon 7 splicing; [7]): > 8 µM | splicing modulation in cells (SMN2 exon 7 splicing): without showing any observable splicing modulation | Kd ([2]; Table 3): 0.47 ± 0.08 µM | Kd ([2]; Table 4): 0.47 ± 0.8 µM

O=c1oc2cc(N3CCNCC3)ccc2cc1-c1cn2ccccc2n1 [Compound C29, 3-(imidazo[1,2-a]pyridin-2-yl)-7-(piperazin-1-yl)-2H-chromen-2-one]
Kd [1]: 2.8 ± 0.5 µM | EC50 (SMN2 exon 7 splicing; [6]): > 8 µM | EC50 (SMN2 exon 7 splicing; [7]): > 8 µM | splicing modulation in cells (SMN2 exon 7 splicing): without showing any observable splicing modulation | CC50 (in vitro [5]): 5.4 µM | Kd ([2]; Table 3): 0.46 ± 0.08 µM | Kd ([2]; Table 4): 0.46 ± 0.8 µM

O=c1oc2cc(N3CCNCC3)ccc2cc1-c1cn2cc(F)ccc2n1 [Compound C31, 3-(6-fluoroimidazo[1,2-a]pyridin-2-yl)-7-(piperazin-1-yl)-2H-chromen-2-one]
CC50 (in vitro [5]): 4.7 µM | Kd ([2]; Table 3): 0.68 ± 0.1 µM | Kd ([2]; Table 4): 0.68 ± 0.1 µM

O=c1oc2cc(N3CCNCC3)ccc2cc1-c1cn2ccc(Cl)cc2n1 [Compound C32, 3-(7-chloroimidazo[1,2-a]pyridin-2-yl)-7-(piperazin-1-yl)-2H-chromen-2-one]
EC50 (SMN2 exon 7 splicing; [6]): > 8 µM | Kd ([2]; Table 3): 0.4 ± 0.04 µM | Kd ([2]; Table 4): 0.4 ± 0.4 µM

O=c1oc2cc(N3CCNCC3)ccc2cc1-c1cn2cc(Cl)ccc2n1 [Compound C33, 3-(6-chloroimidazo[1,2-a]pyridin-2-yl)-7-(piperazin-1-yl)-2H-chromen-2-one]
CC50 (in vitro [5]): 11.6 µM

COc1ccn2cc(-c3cc4ccc(N5CCNCC5)cc4oc3=O)nc2c1 [Compound C34, 3-(7-methoxyimidazo[1,2-a]pyridin-2-yl)-7-(piperazin-1-yl)-2H-chromen-2-one]
CC50 (in vitro [5]): 3.6 µM

COc1ccc2nc(-c3cc4ccc(N5CCNCC5)cc4oc3=O)cn2c1 [Compound C35, 3-(6-methoxyimidazo[1,2-a]pyridin-2-yl)-7-(piperazin-1-yl)-2H-chromen-2-one]
CC50 (in vitro [5]): 3 µM

O=c1oc2cc(N3CCNCC3)ccc2cc1-c1cn2ccc(C(F)(F)F)cc2n1 [Compound C36, 7-(piperazin-1-yl)-3-(7-(trifluoromethyl)imidazo[1,2-a]pyridin-2-yl)-2H-chromen-2-one]
Kd ([2]; Table 3): 1.4 ± 0.4 µM | Kd ([2]; Table 4): 1.39 ± 0.4 µM

O=c1oc2cc(N3CCNCC3)ccc2cc1-c1cn2cc(C(F)(F)F)ccc2n1 [Compound C37, 7-(piperazin-1-yl)-3-(6-(trifluoromethyl)imidazo[1,2-a]pyridin-2-yl)-2H-chromen-2-one]
CC50 (in vitro [5]): 14.1 µM

O=c1oc2cc(N3CCNCC3)ccc2cc1-c1ccc2ncccc2c1 [Compound C38]
EC50 (SMN2 exon 7 splicing; [6]): > 8 µM | CC50 (in vitro [5]): 1.8 µM

O=c1oc2cc(N3CCNCC3)ccc2cc1-c1ccc2ccccc2c1 [Compound C39]
EC50 (SMN2 exon 7 splicing; [6]): > 8 µM | CC50 (in vitro [5]): 7.9 µM

CC1(C)CC(Oc2ccc(-c3ccc(-c4cn[nH]c4)cc3O)nn2)CC(C)(C)N1 [branaplam]
number of genes whose splicing is significantly affected (gene splicing): 36 genes
